Entries after “also recorded” stand apart in the source; their conditions may differ.
Tests used:
H9 enCORs = experiment: Cortical plate / basement membrane formation in enCORs with dissolved ECM components or GM6001; type: cell-based, human
Method: At day 20, media was changed to an improved differentiation+A (IDM+A): 1:1 of DMEM/F12 and Neurobasal, 0.5% N2 supplement, 2% B27+vitamin A, 0.25% insulin solution, 50 μM 2-mercaptoethanol, 1% Glutamax, 0.5% MEM-NEAA, 1% Penicillin-Streptomycin, 0.4 mM Vitamin C, and 1.49 g HEPES per 500 ml to control pH levels. Alternatively, media can be pH controlled with further bicarbonate buffering with the addition of 1 mg/ml sodium bicarbonate. At day 40, media was changed to IDM+A with 1 ml dissolved Matrigel per 50 ml media by slowly thawing the Matrigel on ice and addition to cold media to dissolve (FIG. 1a, step 6).
For treatment with matrix metalloprotease inhibitor GM6001 (Selleck Chemicals S7157), a final concentration of 3 μM was added beginning on day 30.

[1] = system: microfilament patterned organoids; experiment: CHIR pulse after neuroepithelial budding in microfilament organoids; type: cell-based, human
Source text: At day 3, half media was changed with EB media without bFGF and Y-27632. On day 5, EBs were moved with an angled cut P200 tip to 24-well low-attachment plates (Sigma, cat. #CLS3473) with neural induction media (NI) as previously described in WO 2014/090993 A1 (incorporated herein by reference) (FIG. 1a, step 3). Media was changed every other day. On day 11, or when polarized neural ectoderm was visible on the surface, organoids were transferred to droplet of Matrigel as previously described in WO 2014/090993 A1 but kept in NI media (FIG. 1a, transition from step 3 to 4). At day 13 (2 days after Matrigel embedding), media was changed to an improved differentiation media-A (IDMA): 1:1 of DMEM/F12 and Neurobasal (Invitrogen, cat. #21103049), 0.5% N2 supplement (Invitrogen, cat. #17502048), 2% B27-vitamin A (Invitrogen, cat. #12587010), 0.25% insulin solution (Sigma, cat. #I9278-5ML), 50 μM 2-mercaptoethanol, 1% Glutamax, 0.5% MEM-NEAA, and 1% Penicillin-Streptomycin (Sigma, cat. *P0781). Additionally, CHIR 99021 (Tocris, cat. #4423) at 3 μM was added from day 13 to 16. Media was changed every other day and organoids were moved to a spinning bioreactor or orbital shaker as described previously in WO 2014/090993 A1, on day 18 (FIG. 1a, step 5). After moving to the shaker, media was changed every 3-4 days. Shaking speed was calculated based on the throw of the shaker. […]

H1 spheroids = experiment: Three day CHIR pulse in spheroids, germ layer staining; type: cell-based, human; conditions: 3-day CHIR pulse alone, day 40 spheroids
Method: Organoids were fixed in 4% paraformaldehyde for 20 min at room temperature and washed with PBS three times for 10 min each at room temperature before allowing to sink in 30% sucrose at 4° C. […] Statistical analysis of quantifications performed from imaging data was performed using Student's t-test for significance.

Question: With `CNC(=O)[C@H](Cc1c[nH]c2ccccc12)NC(=O)[C@@H](CC(=O)NO)CC(C)C` [GM6001] as the compound, how does the CP formation (H9 enCORs; GM6001 3 μM continuous from day 30, 60-day enCORs) read?
Answer: The CP formation was “no signs of CP formation; also recorded: did not result in CP formation by 60 days”.

Question: For `CCO` [ethanol], which “ethanol concentration in the media” value (150 mM dose, within a day) is on record?
Answer: Its value is “approximately 60 mM”.

Question: What about the “course of ethanol concentration in the media” value (all doses tested) of the same compound?
Answer: The value was “progressive decrease in concentration over time”.

Question: And the “equivalent blood alcohol content” value (equivalent of approximately 60 mM)?
Answer: Its value is 0.27 % by volume.

Question: For laminin, which CP formation (H9 enCORs; dissolved laminin 35 μg/ml from day 40, 60-day enCORs) is on record?
Answer: The CP formation was “no evidence of CP formation; also recorded: did not recapitulate the extent of CP formation seen with Matrigel”.

Question: Which results are given for `Cc1c[nH]c(-c2cnc(NCCNc3ccc(C#N)cn3)nc2-c2ccc(Cl)cc2Cl)n1` [CHIR, CHIR99021]?
Answer: neuroepithelial bud morphology ([1]; CHIR 3 μM, day 13 to 16, after Matrigel embedding): larger, more continuous buds of neuroepithelium; also recorded: dramatic lateral expansion of neuroepithelial tissues and the generation of larger lumens with surrounding continuous neuroepithelium; dorsal brain region identity staining (Emx1, Tbr1, Tbr2) ([1]; microfilament patterned organoids treated with CHIR): all large lobes of brain tissue within microfilament patterned organoids treated with CHIR to be dorsal cortex; also recorded: large Emx1+ regions; also recorded: virtually all large regions stained positive for dorsal cortical markers Tbr1 and Tbr2; germ layer induction and organoid morphology (H1 spheroids): did not influence germ layer induction or overall organoid morphology

— patent publication US11884933B2, “Supported in vitro developed tissue culture and culturing methods” (IMBA—INSTITUT FÜR MOLEKULARE BIOTECHNOLOGIE GMBH, priority 2016, dated 2024)
